Data taken from US20230085307A1, “PYRIDAZINONE COMPOUND AND HERBICIDE” (NISSAN CHEMICAL CORPORATION, priority 2019, published 2023).

Tests used:
[1] = system: wild oat; assay: Test Example 5: herbicidal effect by foliage application, plastic box (Table 20, symbol I); assay type: in vivo, wild oat (Avena fatua); conditions: foliage application, AAH 320 g/ha, evaluated three weeks after application
Procedure, shortened: (§1)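 Post-emergence foliar test in sterilized diluvial soil. Compound applied as water-diluted emulsion at a predetermined rate to 14-day-old plants; evaluation at three weeks.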

[2] = system: barnyard grass; assay: Test Example 5: herbicidal effect by foliage application, plastic box (Table 20, symbol H); assay type: in vivo, barnyard grass (Echinochloa crus-galli); conditions: foliage application
From the text: (§2) [Test Example 5] Herbicidal Effect Test by Foliage Application
(§3) Sterilized diluvial soil was placed in a plastic box having a length of 21 cm, a width of 13 cm, and a depth of 7 cm. The seeds of each of southern crabgrass, green foxtail, barnyard grass, wild oat, blackgrass, Italian ryegrass, windgrass, velvetleaf, redroot pigweed, lambsquarters, chickweed, false cleavers, persian speedwell, corn, soybean, rice, wheat, beet, and rapeseed were sowed in a spot-like manner and covered with the soil having a thickness of about 1.5 cm. Thereafter, the plants were grown in a greenhouse at 25° C. to 30° C. After 14-day growth of the plants, the emulsion agent of the compound of the present invention prepared according to Formulation Example 2 was diluted with water so as to achieve a predetermined herbicide amount, and the diluted emulsion agent was uniformly applied to a foliage part with a small-sized spray. Three weeks after the herbicide application, the effect of the herbicide on each plant was evaluated according to the criteria of Test Example 1.

[3] = system: redroot pigweed; assay: Test Example 5: herbicidal effect by foliage application, plastic box (Table 20, symbol N); assay type: in vivo, redroot pigweed (Amaranthus retroflexus); conditions: foliage application
From the text: as §2, §3

[4] = system: lambsquarters; assay: Test Example 5: herbicidal effect by foliage application, plastic box (Table 20, symbol O); assay type: in vivo, lambsquarters (Chenopodium album); conditions: foliage application
From the text: as §2, §3

[5] = system: barnyard grass; assay: Test Example 3: herbicidal effect by foliage application, Wagner pot (Table 18, symbol H); assay type: in vivo, barnyard grass (Echinochloa crus-galli); conditions: amount of applied herbicide 320 g/ha
Procedure, shortened: (§4)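 Plants were sown in alluvial soil held under 0.1–0.5 cm standing water and grown 14 days in a greenhouse at 25–30 °C. An emulsifiable formulation, water-diluted to the set dose, was then sprayed onto the foliage, and effects were scored three weeks later using previously defined criteria.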

[6] = system: blackgrass; assay: Test Example 5: herbicidal effect by foliage application, plastic box (Table 20, symbol J); assay type: in vivo, blackgrass (Alopecurus myosuroides); conditions: foliage application, AAH 320 g/ha, evaluated three weeks after application
Procedure, shortened: as §1

[7] = system: Chinese sprangletop; assay: Test Example 3: herbicidal effect by foliage application, Wagner pot (Table 18, symbol D); assay type: in vivo, chinese sprangletop (Leptochloa chinensis); conditions: amount of applied herbicide 320 g/ha
Procedure, shortened: as §4

[8] = system: Italian ryegrass; assay: Test Example 5: herbicidal effect by foliage application, plastic box (Table 20, symbol K); assay type: in vivo, Italian ryegrass (Lolium multiflorum); conditions: foliage application, AAH 320 g/ha, evaluated three weeks after application
Procedure, shortened: as §1

[9] = system: chickweed; assay: Test Example 5: herbicidal effect by foliage application, plastic box (Table 20, symbol P); assay type: in vivo, common chickweed (Stellaria media); conditions: foliage application, AAH 320 g/ha, evaluated three weeks after application
From the text: as §2, §3

[10] = system: windgrass; assay: Test Example 5: herbicidal effect by foliage application, plastic box (Table 20, symbol L); assay type: in vivo, windgrass (Apera spica-venti); conditions: foliage application, AAH 320 g/ha, evaluated three weeks after application
From the text: as §2, §3

[11] = system: velvetleaf; assay: Test Example 5: herbicidal effect by foliage application, plastic box (Table 20, symbol M); assay type: in vivo, velvetleaf (Abutilon theophrasti); conditions: foliage application
From the text: as §2, §3

[12] = system: green foxtail; assay: Test Example 5: herbicidal effect by foliage application, plastic box (Table 20, symbol G); assay type: in vivo, green foxtail (Setaria viridis); conditions: foliage application
Procedure, shortened: as §1

[13] = system: rice flat sedge; assay: Test Example 3: herbicidal effect by foliage application, Wagner pot (Table 18, symbol E); assay type: in vivo, rice flat sedge (Cyperus iria); conditions: amount of applied herbicide 320 g/ha
Procedure, shortened: as §4

[14] = system: southern crabgrass; assay: Test Example 5: herbicidal effect by foliage application, plastic box (Table 20, symbol F); assay type: in vivo, southern crabgrass (Digitaria ciliaris); conditions: foliage application
Procedure, shortened: as §1

[15] = system: barnyard grass; assay: Test Example 4: herbicidal effect by soil treatment (Table 19, symbol H); assay type: in vivo, barnyard grass (Echinochloa crus-galli); conditions: amount of applied herbicide 320 g/ha
From the text: (§5) [Test Example 4] Herbicidal Effect Test by Soil Treatment
as §3, with “Subsequently,” for “Thereafter, the plants were grown in a greenhouse at 25° C. to 30° C. After 14-day growth of the plants,”, “the surface of the soil” for “a foliage part”, “spray. The plastic box was placed in a greenhouse at 25° C. to 30° C. for growth of the plants.” for “spray.”

[16] = system: velvetleaf; assay: Test Example 4: herbicidal effect by soil treatment (Table 19, symbol M); assay type: in vivo, velvetleaf (Abutilon theophrasti); conditions: amount of applied herbicide 320 g/ha
From the text: as §5
as §3, with “Subsequently,” for “Thereafter, the plants were grown in a greenhouse at 25° C. to 30° C. After 14-day growth of the plants,”, “the surface of the soil” for “a foliage part”, “spray. The plastic box was placed in a greenhouse at 25° C. to 30° C. for growth of the plants.” for “spray.”

[17] = system: green foxtail; assay: Test Example 4: herbicidal effect by soil treatment (Table 19, symbol G); assay type: in vivo, green foxtail (Setaria viridis); conditions: amount of applied herbicide 320 g/ha
From the text: as §5
as §3, with “Subsequently,” for “Thereafter, the plants were grown in a greenhouse at 25° C. to 30° C. After 14-day growth of the plants,”, “the surface of the soil” for “a foliage part”, “spray. The plastic box was placed in a greenhouse at 25° C. to 30° C. for growth of the plants.” for “spray.”

[18] = system: southern crabgrass; assay: Test Example 4: herbicidal effect by soil treatment (Table 19, symbol F); assay type: in vivo, southern crabgrass (Digitaria ciliaris); conditions: amount of applied herbicide 320 g/ha
From the text: as §5
as §3, with “Subsequently,” for “Thereafter, the plants were grown in a greenhouse at 25° C. to 30° C. After 14-day growth of the plants,”, “the surface of the soil” for “a foliage part”, “spray. The plastic box was placed in a greenhouse at 25° C. to 30° C. for growth of the plants.” for “spray.”

[19] = system: redroot pigweed; assay: Test Example 4: herbicidal effect by soil treatment (Table 19, symbol N); assay type: in vivo, redroot pigweed (Amaranthus retroflexus); conditions: amount of applied herbicide 320 g/ha
From the text: as §5
as §3, with “Subsequently,” for “Thereafter, the plants were grown in a greenhouse at 25° C. to 30° C. After 14-day growth of the plants,”, “the surface of the soil” for “a foliage part”, “spray. The plastic box was placed in a greenhouse at 25° C. to 30° C. for growth of the plants.” for “spray.”

[20] = system: lambsquarters; assay: Test Example 4: herbicidal effect by soil treatment (Table 19, symbol O); assay type: in vivo, lambsquarters (Chenopodium album); conditions: amount of applied herbicide 320 g/ha
From the text: as §5
as §3, with “Subsequently,” for “Thereafter, the plants were grown in a greenhouse at 25° C. to 30° C. After 14-day growth of the plants,”, “the surface of the soil” for “a foliage part”, “spray. The plastic box was placed in a greenhouse at 25° C. to 30° C. for growth of the plants.” for “spray.”

[21] = AAH 320 g/ha, evaluated three weeks after application
[22] = 320 g/ha, three weeks after application

SMILES: COC(=O)COc1c(C)nn(C)c(=O)c1-c1c(-c2ccc(OC(F)F)cc2)sc2ccc(F)cc12 [2-306]
- I: wild oat, herbicidal effect (criteria 0-5) [1]: 0 (Herbicidal rate of 5% or less (almost no effect))
- H: barnyard grass, herbicidal effect (criteria 0-5) [2, 21]: 0 (Herbicidal rate of 5% or less (almost no effect))
- N: redroot pigweed, herbicidal effect (criteria 0-5) [3, 21]: 0 (Herbicidal rate of 5% or less (almost no effect))
- O: lambsquarters, herbicidal effect (criteria 0-5) [4, 21]: 2 (Herbicidal rate of 20% or more and less than 40%)
- herbicidal effect on H: barnyard grass [5]: 3 (Herbicidal rate of 40% or more and less than 70%)
- J: blackgrass, herbicidal effect (criteria 0-5) [6]: 0 (Herbicidal rate of 5% or less (almost no effect))
- herbicidal effect on D: Chinese sprangletop [7]: 3 (Herbicidal rate of 40% or more and less than 70%)
- K: Italian ryegrass, herbicidal effect (criteria 0-5) [8]: 0 (Herbicidal rate of 5% or less (almost no effect))
- P: chickweed, herbicidal effect (criteria 0-5) [9]: 5 (Herbicidal rate of 90% or more (almost completely withered))
- L: windgrass, herbicidal effect (criteria 0-5) [10]: 0 (Herbicidal rate of 5% or less (almost no effect))
- M: velvetleaf, herbicidal effect (criteria 0-5) [11, 21]: 0 (Herbicidal rate of 5% or less (almost no effect))
- G: green foxtail, herbicidal effect (criteria 0-5) [12, 21]: 0 (Herbicidal rate of 5% or less (almost no effect))
- herbicidal effect on E: rice flat sedge [13]: 3 (Herbicidal rate of 40% or more and less than 70%)
- F: southern crabgrass, herbicidal effect (criteria 0-5) [14, 21]: 0 (Herbicidal rate of 5% or less (almost no effect))

SMILES: COCCOc1ccc(-c2sc3ccc(F)cc3c2-c2c(O)c(N)nn(C)c2=O)cc1 [2-456]
- herbicidal effect, H: barnyard grass [15]: 0 (Herbicidal rate of 5% or less (almost no effect))
- H: barnyard grass, herbicidal effect grade [2, 22]: 2 (Herbicidal rate of 20% or more and less than 40%)
- N: redroot pigweed, herbicidal effect grade [3, 22]: 4 (Herbicidal rate of 70% or more and less than 90%)
- O: lambsquarters, herbicidal effect grade [4, 22]: 3 (Herbicidal rate of 40% or more and less than 70%)
- herbicidal effect, M: velvetleaf [16]: 0 (Herbicidal rate of 5% or less (almost no effect))
- herbicidal effect, G: green foxtail [17]: 0 (Herbicidal rate of 5% or less (almost no effect))
- herbicidal effect, F: southern crabgrass [18]: 0 (Herbicidal rate of 5% or less (almost no effect))
- herbicidal effect on H: barnyard grass [5]: 3 (Herbicidal rate of 40% or more and less than 70%)
- herbicidal effect, N: redroot pigweed [19]: 5 (Herbicidal rate of 90% or more (almost completely withered))
- herbicidal effect on D: Chinese sprangletop [7]: 0 (Herbicidal rate of 5% or less (almost no effect))
- herbicidal effect, O: lambsquarters [20]: 3 (Herbicidal rate of 40% or more and less than 70%)
- M: velvetleaf, herbicidal effect grade [11, 22]: 3 (Herbicidal rate of 40% or more and less than 70%)
- G: green foxtail, herbicidal effect grade [12, 22]: 1 (Herbicidal rate of 5% or more and less than 20%)
- herbicidal effect on E: rice flat sedge [13]: 0 (Herbicidal rate of 5% or less (almost no effect))
- F: southern crabgrass, herbicidal effect grade [14, 22]: 0 (Herbicidal rate of 5% or less (almost no effect))
